Assay results from PubChem BioAssay (NCI).
Several values for one entry are separate records, joined by “and”; a condition that tells them apart may be missing. Equal entries are not always repeated.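 The compound was tested at five concentrations on cells cultured in 96-well plates, with a 48-hour exposure period. GI50 is the concentration that inhibits growth by half. Definition used: TGI = concentration required for complete inhibition of growth.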 *1 amine or outer side, *2 acyl side, *3 side chain or, on linkers, in order; H or OH if unused. Where a SMILES comes first, the peptide text is derived from it. Bridges are numbered along the chain shown (N, C = ends). [ ]: non-standard residue; d: D form. The star is where a group is joined. Phe(3-Me) = Cc1cccc(C[C@H](N)C(=O)O)c1; NH(4-Cl-2-F-phenyl) = Fc1cc(Cl)ccc1N*; Pro(4R-Me) = C[C@H]1CN[C@H](C(=O)O)C1; Propanoyl(3-NMe2) = CN(C)CCC(=O)*; Hyp = O=C(O)[C@@H]1C[C@@H](O)CN1; aThr = C[C@H](O)[C@H](N)C(=O)O; Pip = O=C(O)[C@@H]1CCCCN1; CO = O=C([*:1])[*:2]

Tests used:
Assay in all cases: DTP human tumour cell line panel, 48 h
CAKI-1 renal = test system: CAKI-1 renal
COLO 205 colon = test system: COLO 205 colon
EKVX NSCLC = test system: EKVX NSCLC
NCI-H226 lung = test system: NCI-H226 lung
NCI-H522 lung = test system: NCI-H522 lung
SF-295 CNS = test system: SF-295 CNS
SN12C renal = test system: SN12C renal
SNB-19 CNS = test system: SNB-19 CNS
U251 CNS = test system: U251 CNS
UO-31 renal = test system: UO-31 renal

Compound	GI50 (CAKI-1 renal) [µM]	TGI (CAKI-1 renal)	GI50 (COLO 205 colon) [µM]	TGI (COLO 205 colon)	GI50 (EKVX NSCLC) [µM]	TGI (EKVX NSCLC)	GI50 (NCI-H226 lung) [µM]	TGI (NCI-H226 lung)	GI50 (NCI-H522 lung) [µM]	TGI (NCI-H522 lung) [µM]	GI50 (SF-295 CNS) [µM]	TGI (SF-295 CNS)	GI50 (SN12C renal) [µM]	TGI (SN12C renal) [µM]	GI50 (SNB-19 CNS) [µM]	TGI (SNB-19 CNS) [µM]	GI50 (U251 CNS) [µM]	TGI (U251 CNS)	GI50 (UO-31 renal) [µM]	TGI (UO-31 renal)
O=C1c2cccnc2C(=O)c2c1c(C(=O)OCCN1CCOCC1)c1ccccn21	< 0.0184	14.6 µM	0.137	0.69 µM	1.54	10.1 µM	< 0.017	0.696 µM	< 0.0109	0.0449	0.0197	1.05 µM	< 0.01	1.78	< 0.01	3.15	< 0.0104	0.767 µM	< 0.01	
COC(=O)NN1C(C)=C(C(=O)OC)C2(CCOC2=O)C1(C)O (stereo not drawn)		> 100 µM		> 100 µM		> 100 µM		> 100 µM		> 100		> 100 µM		> 100		> 100		> 100 µM		> 100 µM
CC[C@@]1(O)C(=O)OCc2c1cc1n(c2=O)Cc2c-1nc1ccccc1c2/C=N/OC(C)(C)C	< 0.01	0.149 µM	0.0483	2.05 µM	0.073	23.8 µM	< 0.01	0.0355 µM	< 0.0124	0.0812	< 0.01	0.599 µM	< 0.01	4.75	< 0.01	10.9	< 0.01	0.812 µM	< 0.01	0.122 µM
Cc1cccc(C[C@H](NC(=O)Nc2ccc(Cl)cc2F)C(=O)N[C@@H]2C(=O)N3C[C@H](OC(=O)CCN(C)C)C[C@H]3C(=O)N3CCCC[C@H]3C(=O)N[C@@H](C)C(=O)N3C[C@H](C)C[C@H]3C(=O)O[C@H]2C)c1 ({NH(4-Cl-2-F-phenyl)-CO}-[Phe(3-Me)][aThr][Hyp](Propanoyl(3-NMe2))[Pip]A[Pro(4R-Me)]; ester 2-C)	0.978	3.59 µM	0.355	1.43 µM	0.976	6.25 µM	0.45	2.19 µM	0.495	2.47	0.426	2.15 µM	0.371	2.18	0.389	11.5	0.441	7.27 µM	2.17	7.13 µM
COc1ccc(-c2nocc2-c2cc(OC)c(OC)c(OC)c2)cc1	0.236	> 100 µM	0.0531	1.24 µM	0.121	> 100 µM	14.9	56.1 µM	0.0323	0.499	0.0475	16.9 µM	0.942	> 96.2	0.175	> 100	0.0793	> 81.1 µM	0.54	29 µM
CCN(CC)CC(O)C1CCC(c2ccccc2)CC1 (stereo not drawn)		42.2 µM		29.2 µM		> 100 µM		33.3 µM		43.1		36.6 µM		> 100		> 100		62.7 µM		32.3 µM
C=C1N(C)c2ccc(Cl)cc2C1(C)C	19.2	68.5 µM	2.1	4.36 µM	4.59	> 100 µM	16.4	> 100 µM	5.91	74.8	4.17	38.5 µM	5.38	38.1	8.75	> 100	3.68	57.2 µM	27.9	> 100 µM
O=[N+]([O-])c1ccc(-c2cn(-c3ccc(Cl)cc3)cn2)cc1		> 100 µM		> 100 µM		> 100 µM		> 100 µM		14.4		36.9 µM		> 100		> 100		> 100 µM		> 100 µM
COc1cc2c3c(n(CCCCl)c(=O)c2cc1OC)-c1ccc(C#N)cc1C3=O	10.6	30.9 µM	43.3	> 100 µM	7.99	67.6 µM	16.7	94.9 µM	6.63	59.2	5	18.8 µM	22.7	> 100	22.1	> 100	0.446	2.83 µM	30.2	> 100 µM
COc1ccc(Nc2ncccc2C(=O)NCc2cn(Cc3cccc(Oc4ccccc4)c3)nn2)cc1	3.41	> 100 µM	2.86	7.93 µM	4.16	> 100 µM	3.92	> 100 µM	2.13	5.44	2.94	> 100 µM	4.75	> 100	3.55	> 100	3.91	> 100 µM	3	> 100 µM
O=S(=O)(NCCCNc1cc(-c2cn(-c3ccccc3)nc2-c2cccc(O)c2)ccn1)c1ccc(Cl)cc1	2.3	12 µM	1.57	3.16 µM	2.05	29.6 µM	1.77	5.13 µM	1.88	4.06	1.42	3.29 µM	2.23	6.09	2.68	8.37	1.35	3.47 µM	2.03	8.64 µM
CCN(CC)CCOc1ccc(C(=C2CCCCC2)c2ccc(OCCN(CC)CC)cc2)cc1		3.7 µM		2.7 µM		3.36 µM		4.26 µM		3.29		3.3 µM		3.09		4.03		3.1 µM		2.96 µM
O=C1C(N2C(=O)c3ccccc3C2=O)CN1C(COCc1ccccc1)c1ccc(OCc2ccccc2)cc1 (stereo not drawn)		> 100 µM		> 100 µM		> 100 µM		> 100 µM		> 100		> 100 µM		> 100		> 100		> 100 µM		> 100 µM
COc1ccc(/C(C)=N/NC(N)=S)c(OC)c1		> 100 µM		> 100 µM		> 100 µM		> 100 µM		62.3		> 100 µM		> 100		> 100		> 100 µM		> 100 µM
Oc1cc2c(cc1O)-c1[nH]ncc1CC2		> 100 µM		66.5 µM		61.1 µM		69 µM		25.5		> 100 µM		> 100		> 100		44.6 µM		79.1 µM
O=C([O-])c1ccccc1Nc1ccccc1[O-].[Ni+3].[OH3+].[OH3+].[OH3+]	> 100	> 100 µM	> 100	> 100 µM	> 100	> 100 µM	88.4	> 100 µM	> 100	> 100	> 100	> 100 µM	> 100	> 100	> 100	> 100	> 100	> 100 µM	> 100	> 100 µM
COC(=O)C(Cc1nc2ccccc2[nH]c1=O)C(=O)C(=O)Nc1ccc(OC)cc1[N+](=O)[O-] (stereo not drawn)		> 100 µM		> 100 µM		> 100 µM		> 100 µM		> 100		> 100 µM		> 100		> 100		> 100 µM		> 100 µM
Cc1ccccc1/C=C1\CN(C(=O)OC(C)(C)C)C/C(=C\c2ccccc2C)C1=O	2.06	4.25 µM	2.22	5.25 µM	2.34	6.88 µM	2.01	4.14 µM	2.2	6.63	2.19	5.37 µM	2.7	6.43	1.81	4.38	1.82	3.95 µM	1.63	3.09 µM
Cc1nc2cc(N)c(Cl)cc2[nH]1		> 100 µM		> 100 µM		> 100 µM		> 100 µM		> 100		> 100 µM		> 100		> 100		> 100 µM		> 100 µM
O=C(O)C1OC(Oc2cc(O)c3c(=O)cc(-c4ccc(O)cc4)oc3c2)C(O)C(O)C1O (stereo not drawn)		> 100 µM		> 100 µM		> 100 µM		> 100 µM		> 100		> 100 µM		> 100		> 100		> 100 µM		> 100 µM
C=C(CN1CCN(c2cccc(F)c2)CC1)c1ccc(C(=O)Nc2ccccc2N)cc1	0.629	7.74 µM	2.93	9.09 µM	6.68	> 100 µM	4.17	35.2 µM	0.848	3.88	2.77	73.6 µM	2.74	> 100	1.95	> 100	1.41	43 µM	1.31	10.2 µM
CC(C)CC(=O)NS(=O)(=O)c1ccccc1		> 100 µM		> 100 µM		> 100 µM		> 100 µM		> 100		> 100 µM		> 100		> 100		> 100 µM		> 100 µM
COC(=O)C1C2CCCN2OC1(C)CO (stereo not drawn)		> 100 µM		> 100 µM		> 100 µM		> 100 µM		> 100		> 100 µM		> 100		> 100		> 100 µM		> 100 µM
S=C(N/N=C(/c1ccccc1)c1ccccn1)Nc1cccc(Cl)c1	0.832	8.78 µM and 6.33 µM	0.0168	2.2 µM and 21.6 µM	0.433	1.88 µM and 4.7 µM	0.219	1.64 µM and 4.2 µM	1.12	2.4	0.968	5.36 µM and 5.17 µM		6.07	0.786	15.3	0.0513	2.91 µM and 4.58 µM	1.51	3.34 µM and 4.99 µM
O=C1OC2C(O)C(=O)OC2C1O (stereo not drawn)		> 100 µM		> 100 µM		> 100 µM		> 100 µM		> 100		> 100 µM		> 100		> 100		> 100 µM		> 100 µM
COc1cc(NC(N)=NCCC(C)(C)c2ccc(C(F)(F)F)cc2)ncc1C#N	1.42	2.74 µM	1.65	3.21 µM	1.4	2.87 µM	1.6	3.36 µM	1.44	2.97	1.6	3.06 µM	1.47	2.82	1.79	3.44	1.67	3.05 µM	1.34	2.66 µM
CN(C)CCC1(C2=CCCC2)CC/C(=C\c2ccccc2)C1=O (stereo not drawn)		26.3 µM		28.3 µM		25.7 µM		31.1 µM		27.4		33.6 µM		31.1		28.3		30.3 µM		30.7 µM
CC1(C)OC(=O)C(=C2CC(c3ccccc3)c3ccccc32)C(=O)O1 (stereo not drawn)		> 100 µM		> 100 µM		> 100 µM		> 100 µM		> 100		> 100 µM		> 100		> 100		> 100 µM		> 100 µM
Cc1nn(-c2ccc(Br)cc2)c(C)c1CC(=O)c1cc(O)ccc1O	12.2	27.3 µM	16.4	> 50 µM	21.3	> 50 µM	7.69	19.3 µM	16	> 50	14.9	30.3 µM	6.79	16.6	15	> 50	10.1	21.8 µM	15.9	> 50 µM
CCCCCCCCCC(CCCC(O)CC(=O)O)OC1OC(COC2OC(C)C(O)C(O)C2O)C(O)C(O)C1OC1OC(CO)C(O)C(O)C1OC1OC(C)C(O)C(O)C1O (stereo not drawn)	> 40	> 40 µM	> 40	> 40 µM	> 40	> 40 µM	> 40	> 40 µM	> 40	> 40	> 40	> 40 µM	> 40	> 40	> 40	> 40	> 40	> 40 µM	> 40	> 40 µM
